Where “and” joins values, the source holds several entries; their conditions need not be identical. Identical values can stand only once. Entries after “also recorded” stand apart in the source; their conditions may differ. Like-named read-outs stand apart in the source and are kept apart here.
Legend:
CYP2C9 [1] = details: for AUC0-inf, adjusted geometric mean / Cmax, adjusted geometric mean: linear mixed effects model; for AUC0–144 h / Cmax: patient plasma; for AUC0–144 h / Cmax / Metabolite-to-parent ratio: geometric mean (CV%); for Tmax: median [min, max]; for Metabolite-to-parent ratio: AUC0–144 h based, molecular weight corrected; for classification as CYP2C9 inhibitor: based on S-warfarin AUC increase, ceritinib 750 mg QD
CYP3A [2] = experiment: Clinical DDI study: pharmacokinetics of midazolam (CYP3A probe substrate) and 1′-hydroxymidazolam with and without ceritinib; format: in vivo, human; details: for Metabolite-to-parent ratio: AUC0–144 h based, molecular weight corrected; for classification as CYP3A inhibitor: based on midazolam AUC increase, ceritinib 750 mg QD; for AUC(0-inf): read-out: AUC0-inf, adjusted geometric mean
Description: This was a multicenter, open-label, single sequence, crossover phase I study (ClinicalTrials.gov identifier: NCT02422589) and was divided into two phases, DDI phase and post-DDI treatment phase (Fig. 1). Patients were recruited from 10 clinical centers located across 4 countries, namely Spain (n = 3), United States (n = 3), Italy (n = 3), and Denmark (n = 1).
To assess the pharmacokinetics of probe substrates, blood samples were obtained on Days 1 and 28 at pre-dose and at 0.25, 0.5, 1, 2, 3, 4, 6, 8, 10, 24, 48, 72, 96, 120, and 144 h post-dose. […] A blood sample for CYP2C9 genotyping was collected on Day 1 of the DDI phase from all participating patients. Patients were categorized as CYP2C9 poor, intermediate, or extensive metabolizers based on the genotype testing results. This assessment was of exploratory nature and was not used as inclusion/exclusion criteria in the study.
A linear mixed-effects model was fitted to the log-transformed primary PK parameters (Cmax, AUC0-144 h, and AUC0-inf) and included a fixed effect for treatment and a random effect for subject.

[3] = Safety and tolerability (adverse events) of ceritinib 750 mg QD in patients
Procedure: (§1) Adverse events (AEs) were coded using the Medical Dictionary for Regulatory Activities version 20.1 and were graded using Common Terminology Criteria for Adverse Events version 4.03. All patients were followed up for AEs and serious AEs (SAEs) for at least 30 days following the last dose of study treatment at the end of treatment phase. Tumor evaluation was performed at screening visit within 28 days prior to study treatment (Day 1 of DDI phase) using contrast enhanced computed tomography (or magnetic resonance imaging). Assessments of tumor response were performed every two cycles (i.e., every 6 weeks) through Cycle 9. ORR and DOR by investigator assessment was reported per Response Evaluation Criteria in Solid Tumors (RECIST) 1.1.

[4] = system: advanced ALK-positive tumors; experiment: Antitumor activity (best overall response, ORR, DCR per RECIST 1.1, investigator assessment); format: in vivo, human
Procedure: as §1

CYP3A4/5 = details: cited from earlier work
CYP2C9 [5] = details: cited from earlier work
CYP1A2 = details: cited from earlier work
CYP2D6 = details: cited from earlier work
CYP2B6 = details: cited from earlier work
CYP2C8 = details: cited from earlier work
CYP2C19 = details: cited from earlier work
CYP2A6 = details: HLM, of more minor clinical relevance; cited from earlier work
CYP3A [6] = details: in vitro HLM studies; cited from earlier work
[7] = cited from earlier work
CYP3A [8] = details: PBPK, cited from earlier work
[9] = treatment warfarin + ceritinib 750 mg QD for 3 weeks
[10] = warfarin 10 mg single oral dose + ceritinib 750 mg QD at steady state (Day 28)
[11] = warfarin 10 mg single oral dose alone (Day 1)
[12] = warfarin + ceritinib / warfarin alone
[13] = warfarin + ceritinib vs warfarin alone
[14] = midazolam 2.5 mg single oral dose + ceritinib 750 mg QD at steady state (Day 28), patient plasma, geometric mean (CV%)
[15] = midazolam 2.5 mg single oral dose alone (Day 1), patient plasma, geometric mean (CV%)
[16] = midazolam + ceritinib vs midazolam alone
[17] = All Patients N=33, ceritinib 750 mg QD
[18] = NSCLC N=19, ceritinib 750 mg QD
[19] = Other tumors N=14, ceritinib 750 mg QD
[20] = HLM, read-out: IC50, reversible inhibition
[21] = HLM, read-out: Ki, reversible inhibition
[22] = ceritinib concentrations up to 50 µM
[23] = HLM, of more minor clinical relevance
[24] = midazolam 2.5 mg single oral dose + ceritinib 750 mg QD (Day 28), geometric mean (CV%)
[25] = midazolam 2.5 mg single oral dose alone (Day 1), geometric mean (CV%)

## CC(=O)C[C@@H](c1ccccc1)c1c(O)c2ccccc2oc1=O [S-warfarin]
CYP2C9 [1]; co-administered with ceritinib vs warfarin alone
  reduction of S-warfarin CL/F: approximately 30%
CYP2C9 [1]; [9]
  AUC0-inf, adjusted geometric mean: 32800 ng·h/mL
  Cmax, adjusted geometric mean: 598 ng/mL
CYP2C9 [1]; treatment warfarin alone
  AUC0-inf, adjusted geometric mean: 21200 ng·h/mL
  Cmax, adjusted geometric mean: 569 ng/mL
CYP2C9 [1]; [10]
  AUC0–144 h: 28,400 (36.0) h*ng/mL
  Cmax: 599 (27.5) ng/mL
CYP2C9 [1]; [11]
  AUC0–144 h: 18,200 (46.6) h*ng/mL
  Cmax: 569 (34.9) ng/mL

## CC(=O)C[C@@H](c1ccccc1)c1c(O)c2ccc(O)cc2oc1=O [7-Hydroxy-S-warfarin, 7-hydroxy-S-warfarin]
CYP2C9 [1]; [9]
  AUC0-inf, adjusted geometric mean: 3330 ng·h/mL
  Cmax, adjusted geometric mean: 34.8 ng/mL
CYP2C9 [1]; treatment warfarin alone
  AUC0-inf, adjusted geometric mean: 3090 ng·h/mL
  Cmax, adjusted geometric mean: 39.1 ng/mL
CYP2C9 [1]; warfarin 10 mg single oral dose + ceritinib 750 mg QD (Day 28)
  Tmax: 47.2 [8.50; 73.7] h
CYP2C9 [1]; [10]
  AUC0–144 h: 3320 (64.1) h*ng/mL
  Cmax: 34.9 (61.6) ng/mL
CYP2C9 [1]; [11]
  Tmax: 24.2 [2.97; 49.9] h
  AUC0–144 h: 2910 (61.8) h*ng/mL
  Cmax: 39.7 (60.3) ng/mL
CYP2C9 [1]; warfarin + ceritinib 750 mg QD (Day 28)
  Metabolite-to-parent ratio: 11.7 (58.2) %
CYP2C9 [1]; warfarin + ceritinib 750 mg QD (Day 28), listed as 7-hydroxy-S-warfarin
  Metabolite-to-parent ratio: 11.7%
CYP2C9 [1]; [12]
  AUC0-inf geometric mean ratio (90% CI): 1.08
  Cmax geometric mean ratio (90% CI): 0.890
CYP2C9 [1]; [13]
  decrease in the metabolite-to-parent AUC ratio: 18%
CYP2C9 [1]; warfarin alone (Day 1)
  Metabolite-to-parent ratio: 14.3 (66.6) %
CYP2C9 [1]; warfarin alone (Day 1), listed as 7-hydroxy-S-warfarin
  Metabolite-to-parent ratio: 14.3%

## CC(=O)C[C@H](c1ccccc1)c1c(O)c2ccccc2oc1=O [R-warfarin]
CYP2C9 [1]; [9]
  AUC0-inf, adjusted geometric mean: 38900 ng·h/mL
  Cmax, adjusted geometric mean: 616 ng/mL
CYP2C9 [1]; treatment warfarin alone
  AUC0-inf, adjusted geometric mean: 36300 ng·h/mL
  Cmax, adjusted geometric mean: 560 ng/mL
CYP2C9 [1]; [10]
  AUC0–144 h: 38,500 (34.9) h*ng/mL
  Cmax: 616 (23.6) ng/mL
CYP2C9 [1]; [11]
  AUC0–144 h: 30,600 (39.0) h*ng/mL
  Cmax: 560 (34.2) ng/mL
CYP2C9 [1]; [13]
  impact of ceritinib on R-warfarin pharmacokinetics: did not affect the pharmacokinetics of R-warfarin to a clinically significant extent; also recorded: negligible

## OCc1ncc2n1-c1ccc(Cl)cc1C(c1ccccc1F)=NC2 [1′-hydroxymidazolam]
CYP3A [2]; midazolam 2.5 mg single oral dose + ceritinib 750 mg QD (Day 28), median [min, max]
  Tmax: 0.583 [0.250; 2.53] h
CYP3A [2]; [14]
  AUC0–144 h: 12.1 (87.0) h*ng/mL
  Cmax: 1.90 (73.8) ng/mL
CYP3A [2]; midazolam 2.5 mg single oral dose alone (Day 1), median [min, max]
  Tmax: 0.500 [0.217; 2.00] h
CYP3A [2]; [15]
  AUC0–144 h: 14.7 (74.4) h*ng/mL
  Cmax: 5.41 (74.1) ng/mL
CYP3A [2]; midazolam + ceritinib 750 mg QD (Day 28), geometric mean (CV%)
  Metabolite-to-parent ratio: 2.9% and 2.89 (66.7) %
CYP3A [2]; [16]
  decrease in the metabolite-to-parent AUC ratio: 85%
CYP3A [2]; midazolam alone (Day 1), geometric mean (CV%)
  Metabolite-to-parent ratio: 19.3% and 19.3 (66.3) %

## Cc1cc(Nc2ncc(Cl)c(Nc3ccccc3S(=O)(=O)C(C)C)n2)c(OC(C)C)cc1C1CCNCC1 [ceritinib]
CYP3A [2]
  classification as CYP3A inhibitor: strong inhibitor of CYP3A
CYP3A [2]; listed as Ceritinib
  classification as CYP3A inhibitor: strong CYP3A inhibitor
[3]; all patients N=33
  deaths suspected to be treatment related: None
[3]; all patients N=33, cause study disease
  patients who died during the study: 8 patients
[3]; within 30 days of last dose of ceritinib
  deaths during the on-treatment period: 4 deaths
[4]; 19 patients with NSCLC, 95% CI: 20.3, 66.5
  ORR: 42.1%
[4]; 19 patients with NSCLC, 95% CI: 38.4, 83.7
  DCR: 63.2%
[4]; [17]
  Best overall response Unknown: 6 (18.2) n (%)
  Complete response (CR): 1 (3.0) n (%)
  Non-CR/Non-PD: 2 (6.1) n (%)
  Partial response (PR): 8 (24.2) n (%)
  Progressive disease (PD): 12 (36.4) n (%)
[4]; [18]
  Best overall response Unknown: 4 (21.1) n (%)
  Complete response (CR): 1 (5.3) n (%)
  Non-CR/Non-PD: 2 (10.5) n (%)
  Partial response (PR): 7 (36.8) n (%)
  Progressive disease (PD): 3 (15.8) n (%)
[4]; [19]
  Best overall response Unknown: 2 (14.3) n (%)
  Complete response (CR): 0 n (%)
  Non-CR/Non-PD: 0 n (%)
  Partial response (PR): 1 (7.1) n (%)
  Progressive disease (PD): 9 (64.3) n (%)
[4]; overall, all 33 patients, 95% CI: 13.3, 45.5
  ORR: 27.3%
[4]; overall, all 33 patients, 95% CI: 28.1, 63.6
  DCR: 45.5%
CYP2C9 [1]
  classification as CYP2C9 inhibitor: weak inhibitor of CYP2C9
CYP2C9 [1]; listed as Ceritinib
  classification as CYP2C9 inhibitor: weak CYP2C9 inhibitor
CYP3A4/5; [20]
  IC50: 200 nM
CYP3A4/5; [21]
  Ki: 160 nM
CYP3A4/5; pooled HLMs
  mode of inhibition of metabolism of midazolam (CYP3A substrate): competitively inhibited
CYP3A4/5; time-dependent inhibition of CYP3A, HLM
  inhibitor concentration associated with 50% maximal inactivation rate [Ki]: 1470 nM
CYP2C9 [5]; [20]
  IC50: 2000 nM
CYP2C9 [5]; [21]
  Ki: 240 nM
CYP2C9 [5]; [22]
  time-dependent inhibition: no apparent time-dependent inhibition
CYP2C9 [5]; pooled HLMs
  mode of inhibition of metabolism of diclofenac (CYP2C9 substrate): competitively inhibited
CYP1A2; [22]
  time-dependent inhibition: no apparent time-dependent inhibition
CYP1A2
  inhibition at clinically relevant concentrations: unlikely to inhibit
CYP2D6; [23]
  reversible inhibition: reversibly inhibits
CYP2D6; [22]
  time-dependent inhibition: no apparent time-dependent inhibition
CYP2D6
  inhibition at clinically relevant concentrations: unlikely to inhibit
CYP2B6; [23]
  reversible inhibition: reversibly inhibits
CYP2B6
  inhibition at clinically relevant concentrations: unlikely to inhibit
CYP2C8
  inhibition at clinically relevant concentrations: unlikely to inhibit
CYP2C19
  inhibition at clinically relevant concentrations: unlikely to inhibit
CYP2A6
  reversible inhibition: reversibly inhibits
CYP3A [6]
  share of hepatic oxidative metabolism via CYP3A: > 90%
[7]; observed in earlier clinical trials
  Cmax at steady-state: 1010 ng/mL
[7]; observed in earlier clinical trials, read-out: Cmax at steady-state
  Cmax: 1800 nM
[7]; repeat daily dosing
  time to steady-state: 2–3 weeks

## Cc1ncc2n1-c1ccc(Cl)cc1C(c1ccccc1F)=NC2 [Midazolam, midazolam]
CYP3A [2]; human, plasma, oral
  Tmax: ~1 h
CYP3A [2]; human, plasma, oral, treatment midazolam + ceritinib 750 mg QD for 3 weeks, linear mixed effects model
  AUC(0-inf): 393 ng·h/mL
CYP3A [2]; human, plasma, oral, treatment midazolam + ceritinib 750 mg QD for 3 weeks, linear mixed effects model, read-out: Cmax, adjusted geometric mean
  Cmax: 42 ng/mL
CYP3A [2]; human, plasma, oral, treatment midazolam alone, linear mixed effects model
  AUC(0-inf): 72.5 ng·h/mL
CYP3A [2]; human, plasma, oral, treatment midazolam alone, linear mixed effects model, read-out: Cmax, adjusted geometric mean
  Cmax: 23 ng/mL
CYP3A [2]; human, plasma, po, 2.5 mg, midazolam 2.5 mg single oral dose alone (Day 1), geometric mean (CV%)
  half-life: 6 h
CYP3A [2]; human, plasma, po, 2.5 mg, midazolam 2.5 mg single oral dose alone (Day 1), patient plasma, geometric mean (CV%), read-out: Cmax
  Cmax: 23 ng/mL
CYP3A [2]; human, plasma, po, 2.5 mg, read-out: AUC0–144 h
  AUC(0-t): 70.2 ng·h/mL
CYP3A [2]; human, plasma, po, 2.5 mg, read-out: Tmax
  Tmax: 0.5 h
CYP3A [2]; human, plasma, po, midazolam 2.5 mg single oral dose + ceritinib 750 mg QD (Day 28), geometric mean (CV%)
  half-life: 15 h
CYP3A [2]; human, plasma, po, midazolam 2.5 mg single oral dose + ceritinib 750 mg QD at steady state (Day 28), patient plasma, geometric mean (CV%), read-out: Cmax
  Cmax: 42 ng/mL
CYP3A [2]; [24]
  CL/F: 6.36 L/h
  T1/2: 15.4 (37.4) h
CYP3A [2]; [25]
  CL/F: 34.5 L/h
  T1/2: 6.05 (47.8) h
CYP3A [2]; [16]
  decrease in apparent clearance (CL/F) of midazolam: approximately 80%
CYP3A [8]; ceritinib dosed to steady-state + single oral dose midazolam 5 mg
  predicted increase of midazolam AUC: 6 fold
CYP3A [8]; single dose ceritinib 750 mg + single oral dose midazolam 5 mg
  predicted increase of midazolam AUC: 30%
